Our source for the IC50 values is US20140005163A1 (NOVARTIS AG, priority 2010, published 2014).

For assay [1], the target named is T1, PI3K gamma (Homo sapiens, UniProt P48736).
T1 construct: His tag (C); made in house; host or cells: baculovirus (pVL1393); Tn5 or TiniPro insect cells; construct from Roger Williams lab, MRC LMB
The experiment in a line: PI3K gamma kinase assay (Kinase-Glo luminescence). The assay is classed as biochemical. The essentials: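 Luminescent ATP-depletion (Kinase-Glo) assay with 150 nM PI3Kγ, 1 μM ATP and 10 μg/mL phosphatidylinositol in 10 mM Tris-HCl pH 7.5, 3 mM MgCl2, 50 mM NaCl, 0.05% CHAPS, 1 mM DTT; 120 min at room temperature. Eight-point dilutions; IC50 by four-parameter logistic fit.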
For orientation: Kinase-Glo measures the ATP left after a reaction by luminescence.

Assay [2] concerns the target T2, PI3K alpha (Homo sapiens, UniProt P42336).
T2 construct: p85(iSH2) fusion partner (see partner chain) (N); His tag (C); made in house; host or cells: baculovirus; Tn5 (Trichoplusia ni) or TiniPro insect cells
The experiment in a line: PI3K alpha kinase assay (Kinase-Glo luminescence). The assay is classed as biochemical. The essentials:
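Read-out: Kinase-Glo luminescence of ATP left after 60 min at room temperature. Conditions: 10 nM PI3Kα (EMV B1075), 1 μM ATP, 10 μg/mL PI substrate, Tris pH 7.5 buffer with MgCl2, NaCl, CHAPS and DTT. IC50s fitted with a four-parameter logistic model.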

Assay [3] deals with T3, mTOR (Homo sapiens, UniProt P42345).
T3 construct: purchased Invitrogen Corporation (Carlsbad/CA, USA) PV4753
T3 sequence (P42345 1360-2549 limits assumed): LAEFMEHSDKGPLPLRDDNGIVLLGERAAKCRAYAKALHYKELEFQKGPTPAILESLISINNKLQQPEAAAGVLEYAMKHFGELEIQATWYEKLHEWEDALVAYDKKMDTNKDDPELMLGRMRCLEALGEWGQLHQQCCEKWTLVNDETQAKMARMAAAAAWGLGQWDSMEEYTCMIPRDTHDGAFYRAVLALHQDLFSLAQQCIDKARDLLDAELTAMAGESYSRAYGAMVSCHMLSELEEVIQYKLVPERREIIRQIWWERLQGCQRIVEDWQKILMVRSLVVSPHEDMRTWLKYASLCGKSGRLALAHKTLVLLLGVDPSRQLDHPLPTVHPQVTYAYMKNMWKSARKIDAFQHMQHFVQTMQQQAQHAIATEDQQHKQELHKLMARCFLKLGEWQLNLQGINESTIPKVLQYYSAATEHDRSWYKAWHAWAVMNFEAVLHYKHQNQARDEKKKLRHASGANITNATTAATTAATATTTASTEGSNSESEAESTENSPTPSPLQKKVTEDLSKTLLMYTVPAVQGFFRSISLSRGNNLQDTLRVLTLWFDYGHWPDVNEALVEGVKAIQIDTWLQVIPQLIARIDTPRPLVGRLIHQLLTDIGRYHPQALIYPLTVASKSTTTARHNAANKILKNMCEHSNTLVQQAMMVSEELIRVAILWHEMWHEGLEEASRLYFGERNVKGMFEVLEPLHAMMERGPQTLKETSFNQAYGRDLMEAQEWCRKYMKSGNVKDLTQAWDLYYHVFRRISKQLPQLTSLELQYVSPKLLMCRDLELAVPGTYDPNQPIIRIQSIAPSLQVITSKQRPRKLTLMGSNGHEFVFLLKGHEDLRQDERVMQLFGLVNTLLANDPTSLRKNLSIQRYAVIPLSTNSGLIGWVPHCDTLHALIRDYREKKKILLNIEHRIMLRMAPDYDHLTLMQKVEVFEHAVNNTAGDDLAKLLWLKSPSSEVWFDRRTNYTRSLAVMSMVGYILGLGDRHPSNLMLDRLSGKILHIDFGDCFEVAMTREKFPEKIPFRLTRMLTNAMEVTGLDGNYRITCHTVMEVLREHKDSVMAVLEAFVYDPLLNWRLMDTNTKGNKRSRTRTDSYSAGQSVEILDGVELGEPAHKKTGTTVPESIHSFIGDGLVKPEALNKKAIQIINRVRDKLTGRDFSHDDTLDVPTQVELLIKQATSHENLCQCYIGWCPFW
The experiment in a line: Biochemical assay for m-TOR by TR-FRET. The note with it: 8 μM ATP, 400 nM GFP-4EBP1, 0.5 nM mTOR. The gist of the method:
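mTOR (0.5 nM final) phosphorylated GFP-4EBP1 (400 nM final) with ATP (8 μM final) at rt in 50 mM HEPES pH 7.5, 10 mM MnCl2, 50 mM NaCl, 1 mM EGTA, 1 mM DTT. EDTA stop with Tb3+-anti-p4EBP1 [pThr46] antibody (0.5 nM); TR-FRET read 15 min later.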
Background: Time-resolved FRET reads energy transfer from a long-lived donor to a nearby acceptor.

In assay [4] the target is T4, PI3K delta (Homo sapiens, UniProt O00329).
T4 construct: for the full-length p110-d subunit are generated and fused by overlapping PCR; p85(iSH2) fusion partner (see partner chain) (N); His tag (C); made in house; host or cells: baculovirus; Tn5 (Trichoplusia ni) or TiniPro insect cells
T4 sequence (O00329 with tags, fused parts or gaps limits assumed): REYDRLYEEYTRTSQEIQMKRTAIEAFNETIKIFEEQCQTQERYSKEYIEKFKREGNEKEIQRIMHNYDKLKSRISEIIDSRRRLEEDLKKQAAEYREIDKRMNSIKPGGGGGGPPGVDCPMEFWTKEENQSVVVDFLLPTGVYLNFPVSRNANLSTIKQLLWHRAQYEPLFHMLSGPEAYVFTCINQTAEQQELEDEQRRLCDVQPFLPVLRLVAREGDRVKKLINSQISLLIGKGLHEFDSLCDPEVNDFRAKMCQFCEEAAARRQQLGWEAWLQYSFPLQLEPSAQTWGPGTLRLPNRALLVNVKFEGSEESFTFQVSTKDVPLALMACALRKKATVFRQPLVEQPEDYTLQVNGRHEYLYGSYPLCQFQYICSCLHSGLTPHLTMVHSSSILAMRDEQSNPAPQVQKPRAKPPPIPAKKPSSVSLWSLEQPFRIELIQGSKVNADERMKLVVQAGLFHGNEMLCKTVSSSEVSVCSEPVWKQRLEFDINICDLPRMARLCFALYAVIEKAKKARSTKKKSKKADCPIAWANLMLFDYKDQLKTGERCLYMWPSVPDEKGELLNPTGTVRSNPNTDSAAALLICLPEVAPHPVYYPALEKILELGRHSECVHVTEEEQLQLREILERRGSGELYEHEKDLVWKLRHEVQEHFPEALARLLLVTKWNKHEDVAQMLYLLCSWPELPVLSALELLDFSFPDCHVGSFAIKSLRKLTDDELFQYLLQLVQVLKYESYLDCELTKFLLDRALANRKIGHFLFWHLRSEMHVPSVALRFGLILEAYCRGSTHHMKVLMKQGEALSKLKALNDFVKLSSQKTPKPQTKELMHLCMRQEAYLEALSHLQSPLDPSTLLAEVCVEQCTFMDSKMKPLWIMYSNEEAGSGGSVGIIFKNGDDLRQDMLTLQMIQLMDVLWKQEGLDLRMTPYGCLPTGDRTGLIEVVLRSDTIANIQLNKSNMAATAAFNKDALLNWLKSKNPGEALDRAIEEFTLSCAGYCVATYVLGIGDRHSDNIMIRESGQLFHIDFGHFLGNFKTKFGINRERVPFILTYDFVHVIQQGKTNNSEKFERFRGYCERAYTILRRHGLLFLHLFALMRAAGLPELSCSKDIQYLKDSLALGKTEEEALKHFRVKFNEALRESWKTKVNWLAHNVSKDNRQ
The experiment in a line: PI3K delta kinase assay (Kinase-Glo luminescence). The assay is classed as biochemical. The gist of the method:
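Kinase-Glo luminescence read-out of ATP remaining after 60 min at RT. Enzyme: 10 nM BV1060 (p85 iSH2–p110δ fusion, His-tagged); substrate 10 μg/mL PI, ATP 1 μM final; Tris pH 7.5 buffer with MgCl2, NaCl, CHAPS, DTT. IC50 from 4-parameter logistic fit over 8 concentrations.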

Assay [5] relates to S6 Ribosomal Protein phosphorylation Ser235/236 in TSC1 null mouse embryo fibroblast (MEF) cells. The experiment in a line: Reverse protein array assay, S6 Ribosomal Protein phosphorylation Ser235/236 in TSC1 null MEF cells. The assay is classed as cell-based. The conditions noted are these: 1 h, pS6 ribosomal protein Ser235/236, 60 minutes incubation, read-out: p-S6 IC50. The gist of the method: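 TSC1−/− MEFs, seeded and held ≥20 h at 37 °C/5% CO2, were exposed to 8-step serial compound dilutions (0.02% DMSO final; DMSO vehicle control) for 60 min at 37 °C. Cells were then lysed on ice for 10 min and lysates spotted onto reverse protein array chips.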

In general, IC50 refers to the midpoint of a concentration-inhibition curve.

T2 sequence (P42336 with tags, fused parts or gaps limits assumed): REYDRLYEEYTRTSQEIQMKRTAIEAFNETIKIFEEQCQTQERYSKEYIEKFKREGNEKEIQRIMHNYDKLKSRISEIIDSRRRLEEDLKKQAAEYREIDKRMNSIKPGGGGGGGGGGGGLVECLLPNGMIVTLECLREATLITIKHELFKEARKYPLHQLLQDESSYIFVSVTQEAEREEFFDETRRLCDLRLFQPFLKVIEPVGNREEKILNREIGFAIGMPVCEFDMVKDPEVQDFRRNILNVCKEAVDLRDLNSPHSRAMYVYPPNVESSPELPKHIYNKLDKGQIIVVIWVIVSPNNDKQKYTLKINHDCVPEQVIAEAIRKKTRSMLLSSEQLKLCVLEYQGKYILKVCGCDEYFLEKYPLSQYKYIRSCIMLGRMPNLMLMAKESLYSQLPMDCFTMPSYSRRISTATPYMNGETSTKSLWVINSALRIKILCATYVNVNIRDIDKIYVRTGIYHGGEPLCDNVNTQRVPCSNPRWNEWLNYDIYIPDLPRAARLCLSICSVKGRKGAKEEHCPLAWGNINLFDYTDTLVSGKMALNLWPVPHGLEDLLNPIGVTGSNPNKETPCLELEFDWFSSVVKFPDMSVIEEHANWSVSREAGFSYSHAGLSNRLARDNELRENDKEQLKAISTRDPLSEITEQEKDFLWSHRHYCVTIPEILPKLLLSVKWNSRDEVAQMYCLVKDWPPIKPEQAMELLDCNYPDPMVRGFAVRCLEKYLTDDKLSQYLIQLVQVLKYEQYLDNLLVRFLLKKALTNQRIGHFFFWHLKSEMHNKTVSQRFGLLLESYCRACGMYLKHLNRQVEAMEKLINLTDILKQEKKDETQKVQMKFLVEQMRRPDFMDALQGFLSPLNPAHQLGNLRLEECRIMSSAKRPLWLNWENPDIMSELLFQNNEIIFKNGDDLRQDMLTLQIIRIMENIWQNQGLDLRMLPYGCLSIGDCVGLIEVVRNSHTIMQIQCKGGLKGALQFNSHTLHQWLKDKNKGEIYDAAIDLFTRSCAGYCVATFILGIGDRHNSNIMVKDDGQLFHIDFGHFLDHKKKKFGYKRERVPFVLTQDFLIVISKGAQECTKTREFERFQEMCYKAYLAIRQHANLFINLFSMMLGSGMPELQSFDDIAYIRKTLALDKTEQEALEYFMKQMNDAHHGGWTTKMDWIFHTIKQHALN
T1 sequence (P48736 144-1102 limits assumed): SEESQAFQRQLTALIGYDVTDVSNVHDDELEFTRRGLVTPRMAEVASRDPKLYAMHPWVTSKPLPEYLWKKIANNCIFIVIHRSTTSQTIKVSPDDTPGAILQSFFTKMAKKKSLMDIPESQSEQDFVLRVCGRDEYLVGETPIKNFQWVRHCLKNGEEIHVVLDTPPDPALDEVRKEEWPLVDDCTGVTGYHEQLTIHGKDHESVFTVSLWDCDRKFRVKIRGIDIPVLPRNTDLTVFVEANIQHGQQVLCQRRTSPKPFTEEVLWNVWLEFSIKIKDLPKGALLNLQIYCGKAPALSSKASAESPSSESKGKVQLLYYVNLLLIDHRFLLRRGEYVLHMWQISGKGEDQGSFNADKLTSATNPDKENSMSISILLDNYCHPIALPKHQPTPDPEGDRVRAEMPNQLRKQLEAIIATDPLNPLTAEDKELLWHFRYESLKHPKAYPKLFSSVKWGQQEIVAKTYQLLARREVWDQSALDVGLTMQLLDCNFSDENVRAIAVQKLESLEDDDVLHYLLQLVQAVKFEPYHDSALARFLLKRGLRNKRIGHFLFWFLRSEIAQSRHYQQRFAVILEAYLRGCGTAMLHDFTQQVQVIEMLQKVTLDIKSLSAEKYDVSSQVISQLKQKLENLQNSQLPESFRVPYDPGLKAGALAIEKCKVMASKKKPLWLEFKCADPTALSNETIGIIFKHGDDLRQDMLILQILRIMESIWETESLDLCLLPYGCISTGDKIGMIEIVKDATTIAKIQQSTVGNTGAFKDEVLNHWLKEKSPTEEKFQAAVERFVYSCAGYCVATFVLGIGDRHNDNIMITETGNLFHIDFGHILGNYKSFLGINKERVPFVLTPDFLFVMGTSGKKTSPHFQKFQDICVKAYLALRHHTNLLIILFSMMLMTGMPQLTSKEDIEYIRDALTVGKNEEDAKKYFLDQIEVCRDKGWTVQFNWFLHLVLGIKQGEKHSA

As for `CCOc1ccc(-c2ccc3ncc4c(c3c2)n(-c2cnn(C)c2C)c(=O)n4C)cn1` [Example 3.6, 1-(1,5-Dimethyl-1H-pyrazol-4-yl)-8-(6-ethoxy-pyridin-3-yl)-3-methyl-1,3-dihydro-imidazo[4,5-c]quinolin-2-one], the IC50 in assay [1] was 182 nM; in assay [2], 50 nM; in assay [3], 191 nM; in assay [4], 158 nM; in assay [5], 15 nM.
In the case of `Cc1nn(C(C)C)cc1-n1c(=O)n(C)c2cnc3ccc(-c4ccc(N(C)C)nc4)cc3c21` [Example 4.1, 8-(6-Dimethylamino-pyridin-3-yl)-1-(1-isopropyl-3-methyl-1H-pyrazol-4-yl)-3-methyl-1,3-dihydro-imidazo[4,5-c]quinolin-2-one], the IC50 in assay [1] was 407 nM; in assay [2], 60 nM; in assay [3], 30 nM; in assay [4] it was 39 nM; in assay [5] it was 15 nM.
Consider `CNC(=O)c1ccc(-c2ccc3ncc4c(c3c2)n(-c2cn(C(C)C)nc2C)c(=O)n4C)cn1` [Example 15.3, 5-[1-(1-Isopropyl-3-methyl-1H-pyrazol-4-yl)-3-methyl-2-oxo-2,3-dihydro-1H-imidazo[4,5-c]quinolin-8-yl]-pyridine-2-carboxylic acid methylamide], for which the IC50 worked out at 325 nM in assay [1]; 123 nM in assay [2]; 12 nM in assay [3]; 329 nM in assay [4]; 17 nM in assay [5].
Consider `Cc1nn(C)cc1-n1c(=O)n(C)c2cnc3ccc(-c4ccc(CO)nc4)cc3c21` [Example 16.2, 1-(1,3-Dimethyl-1H-pyrazol-4-yl)-8-(6-hydroxymethyl-pyridin-3-yl)-3-methyl-1,3-dihydro-imidazo[4,5-c]quinolin-2-one], for which the IC50 in assay [1] is 489 nM; in assay [2], 26 nM; in assay [3], 23 nM; in assay [4] it was 18 nM; in assay [5] it was 181 nM.
Taken in the same sequence, the figures for `CCOc1ccc(-c2ccc3ncc4c(c3c2)n(-c2cn(CC)nc2C)c(=O)n4C)cc1OCC` [Example 27.1, 8-(3,4-Diethoxy-phenyl)-1-(1-ethyl-3-methyl-1H-pyrazol-4-yl)-3-methyl-1,3-dihydro-imidazo[4,5-c]quinolin-2-one] were 215 nM, 8 nM, 49 nM, 17 nM and 13 nM.
In the same order, the values of `CCOc1cc(-c2ccc3ncc4c(c3c2)n(-c2cn(CC)nc2C)c(=O)n4C)ccc1OC` [Example 28.1, 8-(3-Ethoxy-4-methoxy-phenyl)-1-(1-ethyl-3-methyl-1H-pyrazol-4-yl)-3-methyl-1,3-dihydro-imidazo[4,5-c]quinolin-2-one] are 75 nM, less than 3 nM, 16 nM, 6 nM and less than 5 nM.
Taken in the same sequence, the figures for `CCOc1cc(-c2ccc3ncc4c(c3c2)n(-c2cn(C)nc2C)c(=O)n4C)ccc1OC` [Example 28.3, 1-(1,3-Dimethyl-1H-pyrazo1-4-yl)-8-(3-ethoxy-4-methoxy-phenyl)-3-methyl-1,3-dihydro-imidazo[4,5-c]quinolin-2-one] were 194 nM, 13 nM, 13 nM, 42 nM and 2 nM.
As for `CCOc1ccc(-c2ccc3ncc4c(c3c2)n(-c2cn(C)nc2C)c(=O)n4C)cc1OC` [Example 29.3, 1-(1,3-Dimethyl-1H-pyrazol-4-yl)-8-(4-ethoxy-3-methoxy-phenyl)-3-methyl-1,3-dihydro-imidazo[4,5-c]quinolin-2-one], the IC50 in assay [1] stood at 169 nM; in assay [2], 11 nM; in assay [3], 7 nM; in assay [4], 40 nM; in assay [5], 4 nM.
Taken in the same sequence, the figures for `CCn1cc(-n2c(=O)n(C)c3cnc4ccc(-c5ccc(OCCOC)c(OC)c5)cc4c32)c(C)n1` [Example 30.2, 1-(1-Ethyl-3-methyl-1H-pyrazol-4-yl)-8-[3-methoxy-4-(2-methoxy-ethoxy)-phenyl]-3-methyl-1,3-dihydro-imidazo[4,5-c]quinolin-2-one] were 150 nM, 30 nM, 54 nM, 42 nM and 41 nM.
For the compound `Cc1nn(C)cc1-n1c(=O)n(C)c2cnc3ccc(-c4cccc(O)c4)cc3c21` [Example 32.1, 1-(1,3-Dimethyl-1H-pyrazol-4-yl)-8-(3-hydroxy-phenyl)-3-methyl-1,3-dihydro-imidazo[4,5-c]quinolin-2-one], the IC50 in assay [1] stood at 140 nM; in assay [2], 7 nM; in assay [3] it was 28 nM; in assay [4] it was 47 nM; in assay [5] it was 11 nM.
In the same order, the values of `Cc1nn(C)cc1-n1c(=O)n(C)c2cnc3ccc(-c4cccc5c4OC(F)(F)O5)cc3c21` [Example 35, 8-(2,2-Difluoro-benzo[1,3]dioxol-4-yl)-1-(1,3-dimethyl-1H-pyrazol-4-yl)-3-methyl-1,3-dihydro-imidazo[4,5-c]quinolin-2-one] are 113 nM, 5 nM, 51 nM, 29 nM and 2 nM.
Turning to `Cc1nn(C)cc1-n1c(=O)n(C)c2cnc3ccc(-c4ccccc4)cc3c21` [Example 37.1, 1-(1,3-Dimethyl-1H-pyrazol-4-yl)-3-methyl-8-phenyl-1,3-dihydro-imidazo[4,5-c]quinolin-2-one], the IC50 was 144 nM in assay [1]; 34 nM in assay [2]; 213 nM in assay [3]; 449 nM in assay [4]; 30 nM in assay [5].
As to `Cc1nn(C)cc1-n1c(=O)n(C)c2cnc3ccc(-c4cccc(S(C)(=O)=O)c4)cc3c21` [Example 40, 1-(1,3-Dimethyl-1H-pyrazol-4-yl)-8-(3-methanesulfonyl-phenyl)-3-methyl-1,3-dihydro-imidazo[4,5-c]quinolin-2-one], the IC50 in assay [1] was 83 nM; in assay [2], 20 nM; in assay [3], 71 nM; in assay [4], 23 nM; in assay [5], 36 nM.
In the same order, the values of `Cc1nn(C)cc1-n1c(=O)n(C)c2cnc3ccc(-c4ccc(C(N)=O)cc4)cc3c21` [Example 41, 4-[1-(1,3-Dimethyl-1H-pyrazol-4-yl)-3-methyl-2-oxo-2,3-dihydro-1H-imidazo[4,5-c]quinolin-8-yl]-benzamide] are 165 nM, less than 9 nM, 5 nM, 82 nM and 23 nM.
In the same order, the values of `Cc1nn(C)cc1-n1c(=O)n(C)c2cnc3ccc(-c4cccc(C(N)=O)c4)cc3c21` [Example 46, 3-[1-(1,3-Dimethyl-1H-pyrazol-4-yl)-3-methyl-2-oxo-2,3-dihydro-1H-imidazo[4,5-c]quinolin-8-yl]-benzamide] are 388 nM, 50 nM, 231 nM, 292 nM and 98 nM.
